Measured values taken from PMC5430738, “Psiguajadials A–K: Unusual Psidium Meroterpenoids as Phosphodiesterase-4 Inhibitors from the Leaves of Psidium guajava” (Scientific Reports, 2017).

target: T1, PDE4D2 (Homo sapiens, UniProt Q08499); assay: PDE4D2 enzymatic inhibition assay (3H-cAMP substrate); format: biochemical; settings: human PDE4D2 catalytic domain, 25 °C, 15 min, read-out: IC50 against PDE4D2
T1 construct: human PDE4D2 (catalytic domain, residues 86 –413); made in house; host or cells: E. coli BL21 (Codonplus)
Source text: The protocols for expression, purification, and enzymatic assays of PDE4D2 were similar to those we described previously. More details about the experimental procedures are provided in Supplementary S3.
S3. Experimental section Extraction and isolation and PDE4D assay
S3.1. Extraction and isolation […]
S3.2. Expression and purification of PDE4D2 prot ein
subcloned into the expression vector pET15b. All these resultant plasmids were transformed into E.
coli strain BL21 (Codonplus) for over expression. The E. coli cells carrying these plasmids were
grown in LB medium at 37 /g113C to OD600 = 0.7, and then 0.1 mM isopropyl
/g69-D-thiogalactop yranoside was added for further growth at 16 /g113C for 20–40 h. The recombinant
protein was purified by Ni-NTA column (Qiagen).
The enz ymatic activities of PDE4D cat al ytic domain and the inhibition of PDE4D by extracted
reactions were occured in mixture containing 50 mM Tris/HCl (pH 7.5), 10 mM MgCl2, 0.5 mM
DTT at room temperature (25 /g113C) for 15 min. The reactions were terminated by addition of 0.2 M
Zn S O 4 and Ba(OH)2. The reaction product 3H-AMP was precipitated out, while unreacted
3H-cAMP remained in the supernatant. The mechanism was illustrated as shown below (Scheme
S3.2). Radioactivity in the supernatant was measured in 2.5 mL Ultima Gold liquid scintillation
repeated at least three times. The IC 50 values were calculated by nonlinear regression. As a […]

T1 sequence (Q08499 388-715): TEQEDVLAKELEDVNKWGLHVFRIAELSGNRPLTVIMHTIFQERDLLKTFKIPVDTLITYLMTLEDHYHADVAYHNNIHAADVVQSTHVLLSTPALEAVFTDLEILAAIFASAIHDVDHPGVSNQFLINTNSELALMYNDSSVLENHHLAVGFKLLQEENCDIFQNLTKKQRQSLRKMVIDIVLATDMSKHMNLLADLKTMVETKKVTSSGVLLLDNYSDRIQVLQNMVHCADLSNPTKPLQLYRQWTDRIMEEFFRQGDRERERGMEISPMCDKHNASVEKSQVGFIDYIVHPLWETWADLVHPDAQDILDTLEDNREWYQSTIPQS

Row | IC50 | SMILES
1 | 3110 ± 100 nM | CC(C)C1CCC(C)C23CCC4(CC(c5ccccc5)c5c(O)c(C=O)c(O)c(C=O)c5O4)C2C13 (stereo not shown) [Compound 1, Psiguajadial A]
2 | 1600 ± 90 nM | C=C1CCC2C(c3ccccc3)c3c(O)c(C=O)c(O)c(C=O)c3OC2(C)CCC2C1CC2(C)C (stereo not shown) [Compound 18, psidial A]
3 | > 50000 nM | CC1(C)C2CC3C(c4ccccc4)c4c(O)c(C=O)c(O)c(C=O)c4OC3(C)C1C2 (stereo not shown) [Compound 27, guadial B]
4 | 2700 ± 150 nM | CC(C)C12CCC3(CC(c4ccccc4)c4c(O)c(C=O)c(O)c(C=O)c4O3)C1C2 (stereo not shown) [Compound 26, guadial A]
5 | 2630 ± 130 nM | CC1(C)CC2C1CCC13CC2(C)CCC1C(c1ccccc1)c1c(O)c(C=O)c(O)c(C=O)c1O3 (stereo not shown) [Compound 6, Psiguajadial F]
6 | 1620 ± 80 nM | C=C1CCC2C(c3ccccc3)c3c(O)c(C=O)c(O)c(C=O)c3OC2(C)CCC2C1CC2(C)C (stereo not shown) [Compound 19, guajadial]
7 | 17100 ± 960 nM | CC1(C)C2CCC3(CC(c4ccccc4)c4c(O)c(C=O)c(O)c(C=O)c4O3)C1C2 (stereo not shown) [Compound 28, guadial C]
8 | 1340 ± 330 nM | C=C1CCC2C(c3ccccc3)c3c(O)c(C=O)c(O)c(C=O)c3OC2(C)CCC2C1CC2(C)C (stereo not shown) [Compound 7, Psiguajadial G]
9 | 3680 ± 270 nM | CC(C)C12CCC3(CC(c4ccccc4)c4c(O)c(C=O)c(O)c(C=O)c4O3)C1C2 (stereo not shown) [Compound 11, Psiguajadial K]
10 | 1370 ± 70 nM | C=C1CCC2C(c3ccccc3)c3c(O)c(C=O)c(O)c(C=O)c3OC2(C)CCC2C1CC2(C)C (stereo not shown) [Compound 20, psiguajadial L]

Second part, the molecule before the results:

Row | SMILES | IC50
11 | CC(C)C1CCC(C)C2CCC3(C=C12)CC(c1ccccc1)c1c(O)c(C=O)c(O)c(C=O)c1O3 (stereo not shown) [Compound 21, Guajadial C] | 2280 ± 110 nM
12 | CC1CCC2C(C3C4(C)CCC13Oc1c(C=O)c(O)c(C=O)c(O)c1C4c1ccccc1)C2(C)C (stereo not shown) [Compound 16, psiguadial A] | 7260 ± 410 nM
13 | CC1=CCCC2(C)C(c3ccccc3)c3c(O)c(C=O)c(O)c(C=O)c3OC2C2C(CC1)C2(C)C (stereo not shown) [Compound 13, psiguadial D] | 3420 ± 210 nM
14 | CC1=C2C3CC(C)(C(c4ccccc4)c4c(O)c(C=O)c(O)c(C=O)c4O3)C2C2C(CC1)C2(C)C (stereo not shown) [Compound 3, Psiguajadial C] | 4500 ± 280 nM
15 | CC(C)C1CCC(C)C2CCC3(C=C12)CC(c1ccccc1)c1c(O)c(C=O)c(O)c(C=O)c1O3 (stereo not shown) [Compound 8, Psiguajadial H] | 1810 ± 90 nM
16 | CC1=CCC(C)(C)C=CCC2(C)Oc3c(C=O)c(O)c(C=O)c(O)c3C(c3ccccc3)C2CC1 (single isomer, unassigned; (+)) [Compound 15, (+)-guajadial B] | > 50000 nM
17 | CC(C)C1CCC(C)C2CCC3(C=C12)CC(c1ccccc1)c1c(O)c(C=O)c(O)c(C=O)c1O3 (stereo not shown) [Compound 9, Psiguajadial I] | 2510 ± 170 nM
18 | CC1=CCCC2(C)Oc3c(C=O)c(O)c(C=O)c(O)c3C(c3ccccc3)C2C2C(CC1)C2(C)C (stereo not shown) [Compound 12, Guajavadial C] | 4330 ± 210 nM
19 | CC(C)C12CC3C(c4ccccc4)c4c(O)c(C=O)c(O)c(C=O)c4OC3(C)C1C2 (stereo not shown) [Compound 25, guajavadial A] | 2010 ± 70 nM
20 | CC(C)C1CCC(C)C2CCC3(C=C12)CC(c1ccccc1)c1c(O)c(C=O)c(O)c(C=O)c1O3 (stereo not shown) [Compound 22, Guajadial D] | 1930 ± 110 nM
21 | C=C1CCC2Cc3c(O)c(C(=O)c4ccccc4)c(O)c(C=O)c3OC2(C)CCC2C1CC2(C)C (stereo not shown) [Compound 17, guapsidial A] | 5610 ± 510 nM
22 | CC(C)C1CCC(C)C23CC4C(c5ccccc5)c5c(O)c(C=O)c(O)c(C=O)c5OC4(C)C2C13 (stereo not shown) [Compound 2, Psiguajadial B] | 5030 ± 330 nM
23 | CC(C)C1CCC(C)C2CC3C(c4ccccc4)c4c(O)c(C=O)c(O)c(C=O)c4OC3(C)C=C12 (stereo not shown) [Compound 10, Psiguajadial J] | 2530 ± 330 nM
24 | C=C1CCC2Cc3c(O)c(C=O)c(O)c(C(=O)c4ccccc4)c3OC2(C)CCC2C1CC2(C)C (stereo not shown) [Compound 4, Psiguajadial D] | 4140 ± 260 nM
25 | CC1=CCCC2(C)C(c3ccccc3)c3c(O)c(C=O)c(O)c(C=O)c3OC2C2C(CC1)C2(C)C (stereo not shown) [Compound 5, Psiguajadial E] | 3250 ± 200 nM
26 | CC(C)C1CCC(C)C2CC3C(c4ccccc4)c4c(O)c(C=O)c(O)c(C=O)c4OC3(C)C=C12 (stereo not shown) [Compound 24, Guajadial F] | 2670 ± 170 nM
27 | CC1=CCC(C)(C)C=CCC2(C)Oc3c(C=O)c(O)c(C=O)c(O)c3C(c3ccccc3)C2CC1 (single isomer, unassigned; (-)) [Compound 14, (−)-guajadial B] | > 50000 nM
28 | CC(C)C1CCC(C)C2CC3C(c4ccccc4)c4c(O)c(C=O)c(O)c(C=O)c4OC3(C)C=C12 (stereo not shown) [Compound 23, Guajadial E] | 2730 ± 150 nM
